“Also recorded” adds a separate entry of the source.
Tested on: serum proteins
Experiment: Recovery of spiked CLF from individual human serum samples, classical and labelled-antibody competitive immunoassays
Assay type: in vitro ADME
Conditions: inferred from low recovery of CLF spiked into serum
Protocol: Streptavidin-coated microtitre plate Biotinylated anti-fluorescein antibody, “BJ/C” (NovAssay, using HyTest mouse monoclonal anti-fluorescein, cat code 5F3 2A3 (conjugate ref. DV038/182-1) or AbD Serotec sheep polyclonal anti-fluorescein, cat code 640001 (ref. DV038/182-2) is bound to the plate CLF from the sample competes with CLF-horseradish peroxidase, “CJ/C” (CLF-HRP; NovAssay, DV047/14) for the biotinylated anti-fluorescein antibody Bound CLF-HRP is measured colorimetrically using tetramethylbenzidine (TMB) substrate.
• Streptavidin-coated microtitre plate • Biotin-fluorescein (Sigma B9431) is bound to the plate • CLF from the sample competes with bound biotin-fluorescein for an anti-fluorescein-HRP conjugate (NovAssay, using HyTest mouse monoclonal anti-fluorescein, cat code 5F3 2A3 (conjugate ref. DV047/17-3) • Bound anti-fluorescein-HRP is measured colorimetrically using tetramethylbenzidine (TMB) substrate. […]
Given the success of achieving workable standard curves in both formats, 100 ng/ml of CLF was spiked into a number of individual human serum samples, and the percentage CLF recovery calculated (e.g. 50 ng/ml=50%). […]

SMILES: CC(CCC(=O)NC(CCCCNC(=S)Nc1ccc(-c2c3ccc(=O)cc-3oc3cc(O)ccc23)c(C(=O)O)c1)C(=O)O)C1CCC2C3C(O)CC4CC(O)CCC4(C)C3CC(O)C12C [CLF, Cholyl-L-Lysyl-Fluorescein]
- binding of CLF to serum proteins: binds to serum proteins; also recorded: significant protein binding

— patent US20150212068A1, “Cholyl-L-Lysyl-Fluorescein Assay” (Novassay SA, priority 2012, published 2015)
